These results are taken from patent US8846692B2, “Carboxylic acid derivatives having a 2,5-substituted oxazolopyrimidine ring” (Sanofi, priority 2010, dated 2014).

In this test the target is T1, human Edg-1 receptor (Homo sapiens, UniProt P21453).
T1 construct: expressed in transfected cells; membrane preparation
Nature of the test: GTP-γ-S assay using human Edg-1 receptors (scintillation proximity assay, CHO Flp-In cell membrane preparation). Type of test: biochemical. Conditions: test compound at 10 μM, 10 μM S1P high control regarded as 100% activation, triplicate; for activation at 10 µM: read-out: % Activation (Edg-1 receptor activation in percent of the activation by 10 μM S1P). The text has this: Determination of the Pharmacological Activity A) GTP-γ-S Assay Using Human Edg-1 Receptors
In order to determine the Edg-1 receptor activation by the compounds of the invention, a GTP-γ-S (guanosine 5′-[γ-thio]triphosphate) assay for G-protein coupled receptor binding based on the scintillation proximity assay principle was used, employing a cell membrane preparation from a CHO Flp-In cell line which constitutively overexpresses the human Edg-1 receptor.
A membrane preparation was obtained by standard methods from the afore-described CHO Flp-In cell line constitutively overexpressing the human Edg-1 receptor. Briefly, the cryopreserved cells were taken in culture and grown until confluency in T175 cell culture flasks (Becton Dickinson, cat. no. 35 5001). Cell culture was stopped by washing with calcium-free phosphate-buffered saline (PBS; Gibco, cat. no. 14190), and cells were harvested with a rubber-policeman in 4° C. cold and calcium-free PBS supplemented with a protease inhibitor cocktail (complete protease inhibitor; Roche, cat. no. 1697498; 1 tablet per 50 ml) and subsequently centrifuged at 4° C. for 15 min at 1100×g (Heraeus Minifuge T). For cell lysis, the pellet was resuspended in a 4° C. cold hypotonic buffer consisting of 5 mM HEPES (Sigma-Aldrich, cat. no. H-0981), 1 mM EDTA (disodium salt; Merck, cat. No. 8418) supplemented with protease inhibitor cocktail (as above) in which cells were stored for another 15 min on ice. After lysis, cells were centrifuged at 4° C. for 10 min at 400×g (Heraeus Minifuge T). The pellet was disrupted in a Dounce homogenizer, diluted with the supernatant of the previous centrifugation and subsequently centrifuged at 4° C. for 10 min at 500×g (Heraeus Minifuge T) in order to separate nuclei and still intact cells from the membranes mainly present in the supernatant. The supernatant was then diluted in hypotonic buffer and centrifuged (Beckmann, Avanti J251) at approximately 18600×g for 2 h at 4° C. After centrifugation, the membrane pellet was resuspended in a storing buffer consisting of 20 mM HEPES; 150 mM NaCl (Merck, cat. no. 6400), 1 mM EDTA (as above) supplemented with protease inhibitor cocktail (as above). The membrane preparation was aliquoted and stored at −80° C. Protein concentration of the membrane preparation was determined in a sample by means of a commercial protein assay (Bio-Rad, DC Protein Assay, cat. nos. 500-0113, 500-0114, 500-0115).
The Edg-1 membrane preparation obtained in (b) was employed in a commercially available scintillation proximity assay (SPA) kit for G-protein coupled receptor binding from Amersham Biosciences/GE Healthcare (code RPNQ0210), in which ligand-induced binding of ^35S-radiolabled GTP-γ-S to the receptor-containing membrane, which is bound to scintillation beads, stimulates the emission of light and allows to quantify the in vitro activity of the Edg-1 agonistic compound. The assay was performed on a 96-well plate scale substantially according to the manufacturer's instructions. Before start of the experiments, scintillation beads were suspended in a reconstitution buffer consisting of Tris-HCl (pH 7.4) supplemented with 0.1% (w/v) sodium azide and subsequently diluted on ice with assay buffer (consisting of 20 mM HEPES, 100 mM NaCl, 1 mM EDTA (as above), 1 mM dithiothreitol (DTT), adjusted to pH 7.4) to a final bead concentration of 30 mg/ml.
Wells were charged with 10 μl of the specified assay buffer, 10 μl of a 100 μM guanosine diphosphate (GDP) solution, and 10 μl of a solution of the test compound in assay buffer/dimethylsulfoxide resulting in a final concentration of the test compound of 10 μM. For the high controls, 10 μl of a solution of sphingosine-1-phosphate (S1P; Sigma, cat. no. S-9666), resulting in a final S1P concentration of 10 μM, and for the low controls 10 μl of assay buffer, was added into respective wells instead of the solution of the test compound. All wells contained equivalent amounts of dimethylsulfoxide. […]

T1 sequence (P21453 whole entry): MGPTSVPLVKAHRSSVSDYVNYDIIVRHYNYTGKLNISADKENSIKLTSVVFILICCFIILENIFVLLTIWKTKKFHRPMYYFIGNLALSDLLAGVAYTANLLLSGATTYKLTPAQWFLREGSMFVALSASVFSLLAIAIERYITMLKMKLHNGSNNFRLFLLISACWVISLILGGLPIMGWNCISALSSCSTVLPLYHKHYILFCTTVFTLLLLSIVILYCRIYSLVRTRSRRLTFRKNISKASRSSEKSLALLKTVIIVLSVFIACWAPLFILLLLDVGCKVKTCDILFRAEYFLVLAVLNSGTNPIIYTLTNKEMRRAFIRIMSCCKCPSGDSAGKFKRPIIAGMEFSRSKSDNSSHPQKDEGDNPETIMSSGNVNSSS

In the case of `Cc1cc(-c2nc3cnc(Oc4ccccc4)nc3o2)cc(C)c1OCC(=O)O` [Example 1, [2,6-Dimethyl-4-(5-phenoxy-oxazolo[5,4-d]pyrimidin-2-yl)-phenoxy]-acetic acid], the activation at 10 µM was 116%. Take `O=C(O)/C=C/c1ccc(-c2nc3cnc(Oc4ccccc4F)nc3o2)cc1` [Example 2, (E)-3-{4-[5-(2-Fluoro-phenoxy)-oxazolo[5,4-d]pyrimidin-2-yl]-phenyl}-acrylic acid]: the activation at 10 µM was determined as 83%. Same read-out and setting: in the case of `Cc1cc(-c2nc3cnc(Oc4ccc(F)cc4F)nc3o2)cc(C)c1OCC(=O)O` [Example 3, {4-[5-(2,4-difluoro-phenoxy)-oxazolo[5,4-d]pyrimidin-2-yl]-2,6-dimethyl-phenoxy}-acetic acid] it was 95%. `Cc1cc(-c2nc3cnc(Oc4cc(F)ccc4F)nc3o2)cc(C)c1OCC(=O)O` [Example 4, {4-[5-(2,5-difluoro-phenoxy)-oxazolo[5,4-d]pyrimidin-2-yl]-2,6-dimethyl-phenoxy}-acetic acid]: the activation at 10 µM worked out at 103%. On the same count and under the same terms, in the case of `Cc1ccc(Oc2ncc3nc(-c4cc(C)c(OCC(=O)O)c(C)c4)oc3n2)c(F)c1` [Example 5, {4-[5-(2-fluoro-4-methyl-phenoxy)-oxazolo[5,4-d]pyrimidin-2-yl]-2,6-dimethyl-phenoxy}-acetic acid] it was 101%; in that of `Cc1cc(-c2nc3cnc(Oc4ccccc4F)nc3o2)cc(C)c1OCC(=O)O` [Example 6, {4-[5-(2-fluoro-phenoxy)-oxazolo[5,4-d]pyrimidin-2-yl]-2,6-dimethyl-phenoxy}-acetic acid], 110%.

Take `Cc1cc(-c2nc3cnc(Oc4ccccc4F)nc3o2)cc(C)c1OC(C)C(=O)O` (stereo not drawn) [Example 7, 2-{4-[5-(2-fluoro-phenoxy)-oxazolo[5,4-d]pyrimidin-2-yl]-2,6-dimethyl-phenoxy}-propionic acid]: the activation at 10 µM amounted to 84%. For the molecule `Cc1cc(-c2nc3cnc(Oc4cccc(Cl)c4)nc3o2)cc(C)c1OCC(=O)O` [Example 8, {4-[5-(3-chloro-phenoxy)-oxazolo[5,4-d]pyrimidin-2-yl]-2,6-dimethyl-phenoxy}-acetic acid], the “% Activation (Edg-1 receptor activation in percent of the activation by 10 μM S1P)” value was found to be 74%. For the molecule `Cc1ccc(Oc2ncc3nc(-c4cc(C)c(OCC(=O)O)c(C)c4)oc3n2)cc1F` [Example 9, {4-[5-(3-fluoro-4-methyl-phenoxy)-oxazolo[5,4-d]pyrimidin-2-yl]-2,6-dimethyl-phenoxy}-acetic acid], the activation at 10 µM is 87%. As for `Cc1ccc(F)cc1Oc1ncc2nc(-c3cc(C)c(OCC(=O)O)c(C)c3)oc2n1` [Example 10, {4-[5-(5-fluoro-2-methyl-phenoxy)-oxazolo[5,4-d]pyrimidin-2-yl]-2,6-dimethyl-phenoxy}-acetic acid], the activation at 10 µM worked out at 112%.

As to `Cc1cc(-c2nc3cnc(Oc4ccc(Cl)cc4)nc3o2)cc(C)c1OCC(=O)O` [Example 11, {4-[5-(4-chloro-phenoxy)-oxazolo[5,4-d]pyrimidin-2-yl]-2,6-dimethyl-phenoxy}-acetic acid], the activation at 10 µM came to 105%. As for `Cc1cc(-c2nc3cnc(OC4CCCC4)nc3o2)cc(C)c1OCC(=O)O` [Example 12, [4-(5-cyclopentyloxy-oxazolo[5,4-d]pyrimidin-2-yl)-2,6-dimethyl-phenoxy]-acetic acid], the activation at 10 µM came out at 46%.
